Assay [1] deals with Coriolus versicolor(L. ex Fr.) Quélet, FFPRI 1030. In words: Preserving activity for wood preservatives (weight loss of treated wood). The assay is classed as cell-based. The note with it: beech sapwood specimens, 110 ± 10 g/m² preservative applied (0.5% xylene solution per table note), eight weeks at 26 ± 2 °C; lower = higher preserving activity. The protocol: (§1) This test was conducted according to Specification No.1 of Japan Wood Preserving Association, enacted in 1979, amended in 1989 and titled "Test methods of preserving activity for wood preservatives used in the coating, spraying and dipping treatment".
(§2) • ① Tyromyces palustris (Ber. et Curt.) Murr., FFPRI 0507 --"Ouzuratake" • ② Coriolus versicolor(L. ex Fr.) Quélet, FFPRI 1030 --"Kawaratake"
(§3) These two fungi are classified as wood rot fungi.
(§4) Culture media comprised culture jars (cylindrical jars of bottom diameter 8-9 cm, opening diameter 6-7 cm and height 15-18 cm), in which quartz sand of 250 g (the size of which corresponds to 20-30 mesh) was put first, and then the solution of 70 ml containing 2.0 % malt extracts and 1.0 % peptone was introduced, over which chips of the beech or other broadleaf tree were spread at about 2 mm thickness, and then sterilized at 120 °C for 30 minutes in the wet heated sterilizer.
(§5) Fungi were cultured at 26 ± 2 °C with shaking using the culture solution of 2.0 % malt extracts and 1.0 % peptone. After sufficient breeding was obtained, the fungi solution of about 3 ml was spread all over the culture medium, and then the fungi were cultured at 26 ± 2 °C with the relative humidity of over 70 %. After 10-15 days when the fungi layer sufficiently covered the culture medium, the fungi were served for the tests.
(§6) Wood specimens were the sapwood of intact cedar and beech, the dimension of which was 5 mm thick, 20 mm wide and 40 mm long. The grain face was of 20 mm width and 40 mm length. The side faces were treated with cold-setting epoxy resin.
(§7) The antimicrobial operation was performed with specifying types of fungi for corresponding type of trees. The combinations were as follows: Cedar----Tyromyces palustris ("Ouzuratake") Beech----Coriolus versicolor ("Kawaratake")
(§8) The test specimens were of two types, treated and untreated specimens, respectively.
(§9) The treated specimens referred to the wood specimens coated by brushing, spraying or dipping with wood preservatives. The amount of applied preservatives was 110 ± 10 g/m².
(§10) The amount of applied preservatives for each test specimen was calculated by the following equation:
(§11) The amount of applied preservatives (g/m²)=(W₁-W₂)/A wherein W₁ : weight of the test specimen after absorption(g), W₂ : weight of the test specimen before absorption(g) and A: surface area of test specimen except both butt surfaces (m²)
(§12) 2-7-1 The test specimens prepared in the previous section were dried at 60 ± 2 °C with a recirculating dryer for 48 hours, and were allowed to stand in a desiccator for about 30 minutes, and then the weight (W₃) was measured to an accuracy of 0.01 g.
(§13) 2-7-2 Three of each treated and untreated specimens were assembled in the Teflon casing. After sterilizing, the two assemblies were put on their 40 × 5 mm face on the fungi layer in the separate jar. They were kept at 26 ± 2 °C under the relative humidity of over 70 % for eight weeks.
(§14) 2-7-3 After the eight weeks had elapsed, the test specimens were taken out, and mycelia and other attachments of them were removed neatly. After air-drying for 24 hours, the test specimens were dried at 60 ± 2 °C in a recirculating dryer for 48 hours, and were allowed to stand in a desiccator for about 30 minutes, and then the weight (W₄) was measured to an accuracy of 0.01 g.
(§15) The test results were presented by the ratio of average weight loss of test specimens due to antimicrobial operation. The standard deviation and coefficient of variation were also determined. The ratio of weight loss for each test specimen was calculated by the following equation, and its average was also determined: The ratio of weight loss(%) = (W₃ - W₄) / W₃ × 100 [formula] . Lower value of the ratio of weight loss corresponds to higher wood preserving activity. […]

The subject of assay [2] is Tyromyces palustris (Ber. et Curt.) Murr., FFPRI 0507. Described as above. The note with it: cedar sapwood specimens, 110 ± 10 g/m² preservative applied (0.5% xylene solution per table note), eight weeks at 26 ± 2 °C; lower = higher preserving activity. The assay is classed as cell-based. The protocol:
as §1, §2, §3, §4, §5, §6, §7, §8, §9, §10, §11, §12, §13, §14, §15

The subject of the next assay is wood rot fungi. In words: Preserving activity for wood preservatives, overall statement for both fungi. The format is cell-based, Tyromyces palustris, Coriolus versicolor. The note with it: summary of Table 2. The protocol: as §1, §2, §3, §4, §5, §6, §7, §8, §9, §10, §11, §12, §13, §14, §15

Data on 10 compounds can be found in EP0519427A2, “N-substituted-3-iodopropiolamide, production and use thereof” (priority 1991, dated 1992).

Regarding `CC(C)(C)NC(=O)C#CI` [Example 1, N-(tert-Butyl)-3-iodopropiolamide], the “Ratio of weight loss (%), C. versicolor” value in assay [1] is listed as 11.9%. For the same compound, the “Ratio of weight loss (%), T. palustris” value in assay [2] worked out at 2.4%. For the same compound, the “wood preserving activity (statement in words)” value (shortened to “wood preserving activity”) in the assay on wood rot fungi is listed as “excellent wood preserving activity”.

Regarding `CCCCCCCCCCNC(=O)C#CI` [Example 2, N-(n-Decyl)-3-iodopropiolamide], in assay [1], the “Ratio of weight loss (%), C. versicolor” value was 15.9%. Besides, in assay [2], the “Ratio of weight loss (%), T. palustris” value is on record as 0.2%. The “wood preserving activity” value in the assay on wood rot fungi is reported as “excellent wood preserving activity”.

For the compound `CCCCNC(=O)C#CI` [Example 4, N-(n-Butyl)-3-iodopropiolamide], the “Ratio of weight loss (%), C. versicolor” value in assay [1] was 1.6%. In addition, the “Ratio of weight loss (%), T. palustris” value in assay [2] was found to be 0.0%. Also, in the assay on wood rot fungi, the “wood preserving activity” value was “excellent wood preserving activity”.

Regarding `CCC(C)NC(=O)C#CI` (stereo not drawn) [Example 5, N-(sec-Butyl)-3-iodopropiolamide], the “Ratio of weight loss (%), C. versicolor” value in assay [1] is reported as 7.2%. Also, the “Ratio of weight loss (%), T. palustris” value in assay [2] is listed as 2.5%. In the assay with wood rot fungi, the “wood preserving activity” value was “excellent wood preserving activity”.

As to `CC(C)CNC(=O)C#CI` [Example 6, N-Isobutyl-3-iodopropiolamide], in assay [1], the “Ratio of weight loss (%), C. versicolor” value is recorded as 1.5%. Further, in assay [2], the “Ratio of weight loss (%), T. palustris” value turned out to be 0.0%. In addition, the “wood preserving activity” value in the assay on wood rot fungi is “excellent wood preserving activity”.

With `CCCCCNC(=O)C#CI` [Example 7, N-(n-Pentyl)-3-iodopropiolamide], in assay [1], the “Ratio of weight loss (%), C. versicolor” value was determined as 3.1%. For the same compound, the “Ratio of weight loss (%), T. palustris” value in assay [2] is 2.2%. The “wood preserving activity” value in the assay on wood rot fungi is on record as “excellent wood preserving activity”.

As to `CCCCCCNC(=O)C#CI` [Example 8, N-(n-Hexyl)-3-iodopropiolamide], the “Ratio of weight loss (%), C. versicolor” value in assay [1] is 1.7%. Further, in assay [2], the “Ratio of weight loss (%), T. palustris” value is given as 1.3%. Besides, the “wood preserving activity” value in the assay on wood rot fungi is given as “excellent wood preserving activity”.

Take `CCCCCCCNC(=O)C#CI` [Example 9, N-(n-Heptyl)-3-iodopropiolamide]: in assay [1], the “Ratio of weight loss (%), C. versicolor” value is 12.0%. Further, the “Ratio of weight loss (%), T. palustris” value in assay [2] is listed as 3.3%.

Consider `CCCCCCCCNC(=O)C#CI` [Example 10, N-(n-Octyl)-3-iodopropiolamide], for which, in assay [1], the “Ratio of weight loss (%), C. versicolor” value turned out to be 8.4%. Besides, in assay [2], the “Ratio of weight loss (%), T. palustris” value came to 5.0%.

For the compound `CCCCCCCCCNC(=O)C#CI` [Example 11, N-(n-Nonyl)-3-iodopropiolamide], the “Ratio of weight loss (%), C. versicolor” value in assay [1] was 14.2%. The “Ratio of weight loss (%), T. palustris” value in assay [2] is given as 5.8%.
